How the values were obtained:
[1] = target: T1, Vascular endothelial growth factor receptor 2 (Homo sapiens, UniProt P35968); assay: Inhibition of VEGFR-2 (unknown origin)
[2] = Inhibition of PDGFRbeta (561 to 1106 residues) (unknown origin); set-up: species or system Homo sapiens
[3] = Half life in human; format: ADME
[4] = tested on: HUVEC; assay: Inhibition of VEGF-induced HUVECs proliferation; format: functional, cell-based; conditions: Homo sapiens
[5] = target: T1, Vascular endothelial growth factor receptor 2; assay: Inhibition of recombinant human VEGFR2 using Poly (Glu,Tyr) 4:1 as substrate incubated for 1 hr by ELISA
[6] = target: Platelet-derived growth factor receptor beta (Homo sapiens, UniProt P09619); assay: Inhibition of recombinant human PDGFRbeta using Poly (Glu,Tyr) 4:1 as substrate incubated for 1 hr by ELISA
Platelet-derived growth factor receptor beta, sequence (P09619 whole entry): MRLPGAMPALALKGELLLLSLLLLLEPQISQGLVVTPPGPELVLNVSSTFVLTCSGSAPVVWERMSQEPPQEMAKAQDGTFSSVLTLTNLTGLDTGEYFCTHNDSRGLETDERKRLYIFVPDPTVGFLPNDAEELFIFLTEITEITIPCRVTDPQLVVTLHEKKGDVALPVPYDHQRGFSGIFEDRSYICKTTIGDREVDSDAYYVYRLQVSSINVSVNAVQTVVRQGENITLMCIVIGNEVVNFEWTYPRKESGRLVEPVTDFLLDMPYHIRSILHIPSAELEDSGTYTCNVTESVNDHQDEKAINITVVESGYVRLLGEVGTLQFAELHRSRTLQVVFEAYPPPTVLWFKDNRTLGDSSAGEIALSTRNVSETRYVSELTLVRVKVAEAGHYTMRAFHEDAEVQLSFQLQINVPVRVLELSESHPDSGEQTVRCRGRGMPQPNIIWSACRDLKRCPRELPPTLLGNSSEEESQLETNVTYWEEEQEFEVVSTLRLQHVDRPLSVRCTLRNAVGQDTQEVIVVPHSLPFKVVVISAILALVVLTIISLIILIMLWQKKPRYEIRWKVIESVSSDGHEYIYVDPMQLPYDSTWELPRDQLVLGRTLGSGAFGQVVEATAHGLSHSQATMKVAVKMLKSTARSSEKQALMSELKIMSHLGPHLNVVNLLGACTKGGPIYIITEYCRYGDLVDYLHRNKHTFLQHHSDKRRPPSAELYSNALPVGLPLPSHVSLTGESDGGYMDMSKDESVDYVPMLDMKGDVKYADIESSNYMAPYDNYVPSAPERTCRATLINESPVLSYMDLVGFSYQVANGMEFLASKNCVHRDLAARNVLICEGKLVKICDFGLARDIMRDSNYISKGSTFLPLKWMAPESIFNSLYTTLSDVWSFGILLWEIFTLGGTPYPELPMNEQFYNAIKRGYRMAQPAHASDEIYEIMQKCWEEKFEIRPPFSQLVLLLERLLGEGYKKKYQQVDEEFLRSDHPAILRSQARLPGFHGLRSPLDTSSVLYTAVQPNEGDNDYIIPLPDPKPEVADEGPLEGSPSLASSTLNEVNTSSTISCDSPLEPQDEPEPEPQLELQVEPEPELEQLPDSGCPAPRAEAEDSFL

T1 sequence (P35968 whole entry, the tested form may be a part): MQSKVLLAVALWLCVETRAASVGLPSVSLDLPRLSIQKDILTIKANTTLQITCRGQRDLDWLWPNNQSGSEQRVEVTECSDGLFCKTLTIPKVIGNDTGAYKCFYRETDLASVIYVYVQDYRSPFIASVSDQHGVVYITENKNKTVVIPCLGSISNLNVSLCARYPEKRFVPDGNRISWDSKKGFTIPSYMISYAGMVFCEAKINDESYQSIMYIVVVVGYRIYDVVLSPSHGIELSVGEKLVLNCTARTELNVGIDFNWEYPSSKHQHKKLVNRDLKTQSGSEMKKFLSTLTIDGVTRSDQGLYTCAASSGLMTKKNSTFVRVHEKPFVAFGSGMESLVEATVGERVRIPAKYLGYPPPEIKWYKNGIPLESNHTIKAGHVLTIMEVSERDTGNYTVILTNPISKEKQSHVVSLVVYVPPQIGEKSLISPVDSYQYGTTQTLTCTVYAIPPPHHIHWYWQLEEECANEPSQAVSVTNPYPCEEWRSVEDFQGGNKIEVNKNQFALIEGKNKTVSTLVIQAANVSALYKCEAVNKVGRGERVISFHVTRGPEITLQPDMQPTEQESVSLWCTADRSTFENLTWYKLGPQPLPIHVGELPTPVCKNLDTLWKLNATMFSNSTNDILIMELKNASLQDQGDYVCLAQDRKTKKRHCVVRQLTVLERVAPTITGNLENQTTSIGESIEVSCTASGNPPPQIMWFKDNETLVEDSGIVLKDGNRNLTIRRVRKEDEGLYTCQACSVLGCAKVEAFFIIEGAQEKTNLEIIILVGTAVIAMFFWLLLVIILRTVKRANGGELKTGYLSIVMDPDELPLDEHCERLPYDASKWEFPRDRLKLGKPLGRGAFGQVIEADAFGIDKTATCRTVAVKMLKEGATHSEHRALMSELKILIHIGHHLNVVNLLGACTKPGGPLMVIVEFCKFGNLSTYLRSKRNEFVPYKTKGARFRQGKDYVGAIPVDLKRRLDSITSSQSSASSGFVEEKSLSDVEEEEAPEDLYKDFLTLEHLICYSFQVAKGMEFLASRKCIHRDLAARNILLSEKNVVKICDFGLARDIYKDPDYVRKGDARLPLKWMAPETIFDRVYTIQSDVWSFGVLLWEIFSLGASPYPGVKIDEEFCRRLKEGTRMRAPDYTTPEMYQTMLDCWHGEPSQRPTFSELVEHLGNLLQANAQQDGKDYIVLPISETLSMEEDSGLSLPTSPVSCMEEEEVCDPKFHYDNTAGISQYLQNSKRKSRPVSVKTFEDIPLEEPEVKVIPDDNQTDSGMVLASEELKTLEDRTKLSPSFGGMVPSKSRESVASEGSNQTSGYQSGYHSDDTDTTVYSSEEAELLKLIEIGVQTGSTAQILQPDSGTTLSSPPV

| half-life [3] | Structure (SMILES) | IC50 [1] | IC50 [4] | other results |
| --- | --- | --- | --- | --- |
|  | C=C1C(=O)O[C@H]2C[C@H](C)C(/C=C/C(C)=O)=CC[C@H]12 | 380 nM |  |  |
|  | CNC(=O)c1cc(Oc2ccc(NC(=O)Nc3ccc(Cl)c(C(F)(F)F)c3)c(F)c2)ccn1 [REGORAFENIB] |  |  | IC50 [2]: 22 nM |
| 6.5 h | Cc1[nH]c(/C=C2\C(=O)Nc3ccc(F)cc32)c(C)c1C(=O)N[C@H]1CCN(C(=O)N(C)C)C1 [VOROLANIB] |  | 31.5 nM |  |
| > 40 h | CCN(CC)CCNC(=O)c1c(C)[nH]c(/C=C2\C(=O)Nc3ccc(F)cc32)c1C [SUNITINIB] |  | 12 nM |  |
|  | COc1cc2c(Oc3ccc4[nH]c(C)cc4c3F)ccnc2cc1OCC1(N)CC1 [CATEQUENTINIB] | < 1 nM |  | IC50 [5]: 0.2 nM; IC50 [6]: 115 nM |
